The source made the active and inactive calls. No cut-off for these calls is given here. Peptide text beside a SMILES is read from it.
How the values were obtained:
[1] = target: T1, RYamide receptor (Drosophila melanogaster) (UniProt P25931); assay: Agonist activity at Drosophila melanogaster RYamide receptor expressed in wild type CHO-K1 cells assessed as increase in calcium level at 0.01 mM after 20 secs by luminescence assay; assay type: cell-based
T1 sequence (whole entry): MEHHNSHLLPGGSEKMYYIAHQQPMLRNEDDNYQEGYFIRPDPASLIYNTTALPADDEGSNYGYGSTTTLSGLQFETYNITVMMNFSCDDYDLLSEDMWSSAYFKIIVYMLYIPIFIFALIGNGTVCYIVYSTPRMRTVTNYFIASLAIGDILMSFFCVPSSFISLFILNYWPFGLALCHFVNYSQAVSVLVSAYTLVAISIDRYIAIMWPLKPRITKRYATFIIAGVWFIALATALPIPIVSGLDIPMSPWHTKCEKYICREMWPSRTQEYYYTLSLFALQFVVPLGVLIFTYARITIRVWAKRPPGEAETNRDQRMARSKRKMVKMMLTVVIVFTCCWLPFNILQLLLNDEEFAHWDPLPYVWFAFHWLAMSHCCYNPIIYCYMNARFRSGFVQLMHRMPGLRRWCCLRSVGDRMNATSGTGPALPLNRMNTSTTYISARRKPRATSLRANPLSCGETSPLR

[2] = target: T2, RYamide receptor (Drosophila melanogaster, UniProt P25931); assay: Agonist activity at Drosophila melanogaster RYamide receptor expressed in wild type CHO-K1 cells assessed as increase in calcium level after 20 secs by luminescence assay; assay type: cell-based
T2 sequence (P25931 whole entry): T1 sequence (whole entry)

[3] = target: T1, RYamide receptor (Drosophila melanogaster); assay: Partial agonist activity at Drosophila melanogaster RYamide receptor expressed in wild type CHO-K1 cells assessed as increase in calcium level at 5 uM after 20 secs by luminescence assay relative to RYamide-1; assay type: cell-based
[4] = target: T3, Neuropeptide F receptor (Drosophila melanogaster) (UniProt Q9VNM1); assay: Agonist activity at Drosophila melanogaster NPFR1 expressed in wild type CHO-K1 cells assessed as increase in calcium level at low nanomolar concentration after 20 secs by luminescence assay; assay type: functional, cell-based
T3 sequence (whole entry): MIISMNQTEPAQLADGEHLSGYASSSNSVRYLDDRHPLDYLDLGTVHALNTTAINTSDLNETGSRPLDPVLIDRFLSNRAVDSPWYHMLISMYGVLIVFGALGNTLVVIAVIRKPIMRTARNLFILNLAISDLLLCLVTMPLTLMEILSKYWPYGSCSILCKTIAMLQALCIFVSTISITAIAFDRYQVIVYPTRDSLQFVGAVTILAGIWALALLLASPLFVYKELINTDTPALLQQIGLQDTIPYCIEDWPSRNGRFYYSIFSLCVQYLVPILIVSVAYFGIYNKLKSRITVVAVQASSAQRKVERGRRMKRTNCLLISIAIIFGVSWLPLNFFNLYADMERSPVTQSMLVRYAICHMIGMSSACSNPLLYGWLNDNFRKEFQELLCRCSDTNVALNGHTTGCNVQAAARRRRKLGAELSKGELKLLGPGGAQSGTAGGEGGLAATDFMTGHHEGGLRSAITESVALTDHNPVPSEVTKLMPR

Activity [4]	SMILES	Activity [1]	EC50 [2] [µM]	Activity [3] [%]
	Cc1noc(C)c1CN1CC(Cc2ccccc2)NC(=O)c2nn(CCC3CCN(C(=O)OC(C)(C)C)CC3)cc21 (stereo not drawn)	Active	5.9	40
	CC(C)CN1C[C@H](CCCCN)N=C(SCCC(N)=O)c2nn(CC(C)C)cc21	Active	6.1	40
	CC(C)CN1C[C@H](CCCCN)NC(=S)c2nn(CC(C)C)cc21	Active	6.8	40
	CC(C)CN1C[C@@H](CCCCN)N=C(SCCC(=O)NN)c2nn(CC(C)C)cc21	Active	20.9	40
Active	CSCC[C@H](NC(=O)[C@@H](NC(=O)[C@H](CC(N)=O)NC(=O)[C@@H](NC(=O)[C@H](CC(=O)O)NC(=O)[C@H](CC(N)=O)NC(=O)[C@H](CCCCN)NC(=O)[C@H](CCCNC(=N)N)NC(=O)[C@@H]1CCCN1C(=O)[C@@H]1CCCN1C(=O)[C@H](CCCNC(=N)N)NC(=O)[C@H](CO)NC(=O)[C@H](CC(N)=O)NC(=O)[C@@H](N)CO)C(C)C)[C@@H](C)O)C(=O)N[C@@H](C)C(=O)N[C@@H](CC(=O)O)C(=O)N[C@@H](C)C(=O)N[C@@H](Cc1ccc(O)cc1)C(=O)N[C@@H](CCCCN)C(=O)N[C@@H](Cc1ccccc1)C(=O)N[C@@H](CC(C)C)C(=O)N[C@@H](CCC(N)=O)C(=O)N[C@@H](CC(=O)O)C(=O)N[C@@H](CC(C)C)C(=O)N[C@@H](CC(=O)O)C(=O)N[C@H](C(=O)N[C@@H](Cc1ccc(O)cc1)C(=O)N[C@@H](Cc1ccc(O)cc1)C(=O)NCC(=O)N[C@@H](CC(=O)O)C(=O)N[C@@H](CCCNC(=N)N)C(=O)N[C@@H](C)C(=O)N[C@@H](CCCNC(=N)N)C(=O)N[C@H](C(=O)N[C@@H](CCCNC(=N)N)C(=O)N[C@@H](Cc1ccccc1)C(=O)O)C(C)C)[C@@H](C)O (H-SNSRPPRKNDVNTMADAYKFLQDLDTYYGDRARVRF-OH)			

— ChEMBL document CHEMBL3853332, “Pyrazolodiazepine derivatives with agonist activity toward Drosophila RYamide receptor” (Bioorg Med Chem Lett, 2016)
